The values below come from patent US11660298B1, “Preventing thermal trauma by pre-treatment with Icilin” (priority 2019, dated 2023).

For one test, the system named is Interleukin-8 (IL-8). The experiment in a line: Indirect ELISA of IL-8 expression in fibroblasts. It counts as cell-based, Human. The settings on record: non-thermally challenged and thermally challenged fibroblasts, Icilin 0.0002-0.02 nM. Here is the method:
(§1) Human Foreskin Fibroblasts (HFF) (ATCC, Manassas, Va.) were cultured in Dulbecco's Modified Eagle Medium Nutrient Mixture F-12 with 10% Fetal Bovine Serum, 1% penicillin streptomycin. 0.05% Trypsin EDTA was used for subculture (Invitrogen, Grand Isl., N.Y.). Cells were incubated at 370 Celsius and 5% CO2, and grown in 96 well, T25 or T75 Corning Tissue Culture vessels. When cells became confluent, they were trypsinized using 0.05% trypsin/EDTA. Cells used for the various assays were plated at 0.2×10^6 cells/mL unless otherwise noted. Fibroblasts were selected due to their critical role in skin wound recovery. Fibroblasts were fluorescently imaged with a Nikon Eclipse TS100 Microscope (Nikon, Melville, N.Y.). An in vitro burn model was created to replicate the severity of a third-degree burn. Cells were plated in a Polystyrene 96 Well Plate (100 μL per well) then burned in a VWR Incubating Micro Plate Shaker (VWR, Bridgeport, N.J.) via its adjustable heat setting. Thermal trauma (burning) was determined to take place at 50° C. for a total of 7.5 minutes (FIG. 1b). This temperature represented cell viability >50% 24 hours after the thermal injury treatment. Temperature of plate was confirmed using a Fluke 63 Infrared Thermometer (Fluke, Phoenix, Ariz.). […] The 96-well plate was read to measure absorbance at 405 nm in a microplate reader (BioTek, Winooski, Vt.).
(In general: An ELISA detects its analyte on a solid surface through an enzyme-linked reagent.)

Test [1] has as its system Transient receptor potential cation channel subfamily M member 8 (TRPM8). The experiment in a line: TRPM8 expression levels in fibroblasts. The format is cell-based, Human. The method, then:
Human Foreskin Fibroblasts (HFF) (ATCC, Manassas, Va.) were cultured in Dulbecco's Modified Eagle Medium Nutrient Mixture F-12 with 10% Fetal Bovine Serum, 1% penicillin streptomycin. 0.05% Trypsin EDTA was used for subculture (Invitrogen, Grand Isl., N.Y.). Cells were incubated at 370 Celsius and 5% CO2, and grown in 96 well, T25 or T75 Corning Tissue Culture vessels. When cells became confluent, they were trypsinized using 0.05% trypsin/EDTA. Cells used for the various assays were plated at 0.2×10^6 cells/mL unless otherwise noted. Fibroblasts were selected due to their critical role in skin wound recovery. Fibroblasts were fluorescently imaged with a Nikon Eclipse TS100 Microscope (Nikon, Melville, N.Y.). An in vitro burn model was created to replicate the severity of a third-degree burn. Cells were plated in a Polystyrene 96 Well Plate (100 μL per well) then burned in a VWR Incubating Micro Plate Shaker (VWR, Bridgeport, N.J.) via its adjustable heat setting. Thermal trauma (burning) was determined to take place at 50° C. for a total of 7.5 minutes (FIG. 1b). This temperature represented cell viability >50% 24 hours after the thermal injury treatment. Temperature of plate was confirmed using a Fluke 63 Infrared Thermometer (Fluke, Phoenix, Ariz.). […]

Test [2] has as its system Reactive Oxygen Species (ROS). The test can be described thus: ROS-Glo H2O2 assay of Reactive Oxygen Species in fibroblasts. It counts as cell-based, Human. Here is the method:
Human Foreskin Fibroblasts (HFF) (ATCC, Manassas, Va.) were cultured in Dulbecco's Modified Eagle Medium Nutrient Mixture F-12 with 10% Fetal Bovine Serum, 1% penicillin streptomycin. 0.05% Trypsin EDTA was used for subculture (Invitrogen, Grand Isl., N.Y.). Cells were incubated at 370 Celsius and 5% CO2, and grown in 96 well, T25 or T75 Corning Tissue Culture vessels. When cells became confluent, they were trypsinized using 0.05% trypsin/EDTA. Cells used for the various assays were plated at 0.2×10^6 cells/mL unless otherwise noted. Fibroblasts were selected due to their critical role in skin wound recovery. Fibroblasts were fluorescently imaged with a Nikon Eclipse TS100 Microscope (Nikon, Melville, N.Y.). An in vitro burn model was created to replicate the severity of a third-degree burn. Cells were plated in a Polystyrene 96 Well Plate (100 μL per well) then burned in a VWR Incubating Micro Plate Shaker (VWR, Bridgeport, N.J.) via its adjustable heat setting. Thermal trauma (burning) was determined to take place at 50° C. for a total of 7.5 minutes (FIG. 1b). This temperature represented cell viability >50% 24 hours after the thermal injury treatment. […] ROS was measured through ROS-GIo™ H2O2 Assay (Promega, Madison, Wis.). […] The well plate was then incubated at room temperature for 20 minutes then measured for luminescence (see FIG. 7).

The subject of test [3] is Tumor Necrosis Factor-α (TNF-α). The experiment in a line: Indirect ELISA of TNF-α expression in fibroblasts. The format is cell-based, Human. The method, then:
as §1

The test system of test [4] is Human Foreskin Fibroblasts (HFF). The test can be described thus: Fibroblast viability in the in vitro burn model (MTS / trypan blue exclusion). As to conditions: thermally challenged fibroblasts (50° C., 7.5 minutes), Icilin pre-treatment 0.0002-0.02 nM in DMSO, vs untreated burned fibroblasts, about 24 hours after burning. The format is cell-based. Here is the method:
as §1, with “treatment. […] Proliferation” for “treatment. Temperature of plate”, “was determined” for “was confirmed”, “using the MTS assay.” for “using a Fluke 63 Infrared Thermometer (Fluke, Phoenix, Ariz.).”, “at 490” for “at 405”, “nm using” for “nm in”, “Vt.). Viability was determined by trypan blue exclusion assays. […]” for “Vt.).”

For a further test, the target named is TRPM8 (Homo sapiens, UniProt Q7Z2W7). As to conditions: super-cooling chemical; comparison with menthol; cited from earlier work.
Sequence of TRPM8 (Q7Z2W7 whole entry, species assumed): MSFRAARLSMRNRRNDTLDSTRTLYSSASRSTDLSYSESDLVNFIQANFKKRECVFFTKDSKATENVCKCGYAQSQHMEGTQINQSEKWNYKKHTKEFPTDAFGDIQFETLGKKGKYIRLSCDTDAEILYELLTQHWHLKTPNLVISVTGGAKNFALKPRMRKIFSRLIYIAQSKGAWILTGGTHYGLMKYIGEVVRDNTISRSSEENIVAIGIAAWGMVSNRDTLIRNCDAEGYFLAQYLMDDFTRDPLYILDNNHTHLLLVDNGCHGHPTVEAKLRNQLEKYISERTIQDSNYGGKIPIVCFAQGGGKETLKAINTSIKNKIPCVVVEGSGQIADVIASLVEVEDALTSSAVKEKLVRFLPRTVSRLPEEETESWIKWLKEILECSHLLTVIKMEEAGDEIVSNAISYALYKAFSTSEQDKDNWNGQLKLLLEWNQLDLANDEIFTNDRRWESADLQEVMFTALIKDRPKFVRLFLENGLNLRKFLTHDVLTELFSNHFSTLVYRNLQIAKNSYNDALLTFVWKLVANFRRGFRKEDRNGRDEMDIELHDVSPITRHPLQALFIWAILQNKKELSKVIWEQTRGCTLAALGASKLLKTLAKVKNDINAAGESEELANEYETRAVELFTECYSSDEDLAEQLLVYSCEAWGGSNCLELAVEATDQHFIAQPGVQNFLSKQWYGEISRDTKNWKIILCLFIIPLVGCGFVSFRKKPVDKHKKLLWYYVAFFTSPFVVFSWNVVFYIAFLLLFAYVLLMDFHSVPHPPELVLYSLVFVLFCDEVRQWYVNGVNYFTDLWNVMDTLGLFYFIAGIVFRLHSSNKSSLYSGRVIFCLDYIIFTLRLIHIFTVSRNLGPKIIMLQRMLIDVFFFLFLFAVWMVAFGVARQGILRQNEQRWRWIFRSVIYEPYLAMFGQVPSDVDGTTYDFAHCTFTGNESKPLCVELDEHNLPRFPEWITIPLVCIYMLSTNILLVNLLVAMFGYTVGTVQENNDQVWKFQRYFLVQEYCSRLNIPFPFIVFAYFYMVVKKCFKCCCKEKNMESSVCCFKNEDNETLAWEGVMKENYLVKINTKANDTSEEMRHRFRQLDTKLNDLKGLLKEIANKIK
The test system of the next test is Interleukin-6 (IL-6). The test can be described thus: Indirect ELISA of IL-6 expression in fibroblasts. It counts as cell-based, Human. The method, then: as §1
The next test deals with Interleukin-1β (IL-1β). The experiment in a line: Indirect ELISA of IL-1β expression in fibroblasts. The format is cell-based, Human. The method, then: as §1
Where [5] appears, read: non-thermally challenged fibroblasts, all Icilin concentrations.

Regarding `O=C1NC(c2cccc([N+](=O)[O-])c2)=CCN1c1ccccc1O` [Icilin], in the test with Interleukin-8 (IL-8), the IL-8 expression entry is “no noteworthy effect on IL-8 expression”. Moreover, the TRPM8 expression result in test [1] (setting [5]) is on record as “significantly increased”; in test [1] (thermally challenged fibroblasts, Icilin pre-treatment), “increase in TRPM8 expression was maintained”. Moreover, the ROS levels result in test [2] (setting [5]) is “significantly reduces ROS levels”; in test [2] (thermally challenged fibroblasts, Icilin pre-treatment at 0.02 nM), “essentially restore ROS levels of thermally challenged fibroblasts to their normal quantities”. In addition, the TNF-α expression entry in test [3] (fibroblasts without thermal treatment, increasing Icilin concentrations) is reported as “steady increase in TNF-α expression”; in test [3] (thermally challenged fibroblasts, Icilin pre-treatment, increasing concentrations), “dropped significantly”. Besides, the fibroblast viability entry in test [4] was “significantly higher than the untreated burned fibroblasts”. Besides, the “potency relative to menthol” value on TRPM8 is 200 times. Besides, the IL-6 expression entry is given as “increased IL-6 expression” in the test with Interleukin-6 (IL-6) (non-thermally challenged fibroblasts, Icilin 0.0002-0.02 nM) and “significant decrease in IL-6 expression” with Interleukin-6 (IL-6) (thermally challenged fibroblasts, Icilin pre-treatment 0.0002-0.02 nM). Also, in the test with Interleukin-1β (IL-1β) (non-thermally challenged fibroblasts, increasing concentrations of Icilin), the IL-1β expression result was “IL-1β expression also increases”. In the test with Interleukin-1β (IL-1β) (thermally challenged fibroblasts, Icilin pre-treatment, all concentrations), the “IL-1β levels compared with non-thermally challenged fibroblasts at the same Icilin concentration” value was “below the levels of the non-thermally challenged fibroblasts”.
